Results on eleven compounds are retold here after publication PMC9585728, “Antiviral activity and mechanism of the antifungal drug, anidulafungin, suggesting its potential to promote treatment of viral diseases” (BMC Medicine, 2022).

“And” between values parts separate entries of the source, which are not always exact repeats. Equal entries are not always repeated. “Also recorded” adds a separate entry of the source. Starred links: 1 amine or outer side, 2 acyl side, 3 side chain; linkers in the order of their positions; H or OH if unused. Positions of bridges follow the written chain, without caps; N, C: chain ends. Non-standard residues stand in square brackets, D forms with d. Residues, ends and D or L forms follow the SMILES beside them. *: point of attachment. hTyr(3S-OH,4S-OH,3'-OSO3H) = N[C@H](C(=O)O)[C@H](O)[C@@H](O)c1ccc(O)c(OS(=O)(=O)O)c1; pTerphenylCO(4''-OnC5H11) = CCCCCOc1ccc(-c2ccc(-c3ccc(C(=O)*)cc3)cc2)cc1; Orn(4R-OH,5R-OH) = O=C([C@H](C[C@@H](O)[C@@H](O)N[*:3])N[*:1])[*:2]; hTyr(3S-OH,4S-OH) = N[C@H](C(=O)O)[C@H](O)[C@@H](O)c1ccc(O)cc1; Pro(3S-OH,4S-Me) = C[C@H]1CN[C@H](C(=O)O)[C@H]1O; X1 = CCCCCOc1ccc(-c2cc(-c3ccc(C(=O)*)cc3)no2)cc1; Gln(3R-OH) = NC(=O)C[C@@H](O)[C@H](N)C(=O)O; Hyp = O=C(O)[C@@H]1C[C@@H](O)CN1

The nature of one data set: in vitro. Conditions: African green monkey.
Data set [1] deals with SFTSV. Kind of data set: microbe, parasite or virus in culture. Format: cell-based, severe fever with thrombocytopenia syndrome virus. Conditions: for IC50 / IC90: Severe fever with thrombocytopenia syndrome virus, Vero, 24 h.
The subject of a further data set is DENV. Conditions: inhibition of DENV infection; cited from earlier work.
Data set [2] concerns SFTSV. Format: cell-based, severe fever with thrombocytopenia syndrome virus.
The subject of another data set is ZIKV. Kind of data set: microbe, parasite or virus in culture. Format: cell-based, Zika virus.
The next data set deals with GTV. Kind of data set: microbe, parasite or virus in culture. Format: cell-based, Guertu virus.
Data set [3] concerns SFTSV. The arrangement: species or system A129 mice. The following applies: mouse, in vivo.
Data set [4] deals with SFTSV. Format: cell-based, severe fever with thrombocytopenia syndrome virus. The source holds these as a separate data set.
In the next data set the test system is HRTV. Kind of data set: microbe, parasite or virus in culture. The format is cell-based, Heartland virus.
In the next data set the test system is CCHFV. The data set can be described thus: microbe, parasite or virus in culture. Format: cell-based, Crimean-Congo hemorrhagic fever virus.
For the next data set, the system named is SARS-CoV-2. The data set can be described thus: microbe, parasite or virus in culture. Format: cell-based, severe acute respiratory syndrome coronavirus 2.
Another data set relates to HSV-1. Kind of data set: microbe, parasite or virus in culture. Format: cell-based, herpes simplex virus 1.
The test system of data set [5] is SFTSV. The format is cell-based, severe fever with thrombocytopenia syndrome virus. The source holds these as a separate data set.
For data set [6], the system named is SFTSV. The format is cell-based, severe fever with thrombocytopenia syndrome virus. This is another data set of the same source.
The subject of data set [7] is SFTSV. The format is cell-based, severe fever with thrombocytopenia syndrome virus. Conditions: pH 5.
For data set [8], the system named is SFTSV. Kind of data set: microbe, parasite or virus in culture. The format is cell-based, severe fever with thrombocytopenia syndrome virus.
[9] abbreviates: Orthonairovirus haemorrhagiae, Vero.
Setting [10] is: Severe acute respiratory syndrome coronavirus 2, Vero.

For the compound `CC(=O)Oc1ccccc1C(=O)Nc1ncc([N+](=O)[O-])s1` [Nitazoxanide], in “in vitro”, the CC50 is above 100 µM. For the same compound, in the data set on SFTSV [1], the IC50 came to 11.1 µM and the IC90 is 25.3 µM.
In turn, `COc1cccc(-c2ccc(NC(=O)C3=C(C(=O)O)CCC3)c(F)c2)c1` [Vidofludimus] showed a CC50 in “in vitro” above 100 µM. In the data set on SFTSV [1], this compound gave an SI above 10, a 50% inhibitory concentration (IC50) of 6.07 µM and a concentration for an effect of 90% (IC90) of 14.6 µM.
Consider `CCCCCOc1ccc(-c2ccc(-c3ccc(C(=O)N[C@H]4C[C@@H](O)[C@@H](O)NC(=O)[C@@H]5[C@@H](O)[C@@H](C)CN5C(=O)[C@H]([C@@H](C)O)NC(=O)[C@H]([C@H](O)[C@@H](O)c5ccc(O)cc5)NC(=O)[C@@H]5C[C@@H](O)CN5C(=O)[C@H]([C@@H](C)O)NC4=O)cc3)cc2)cc1` [Anidulafungin, anidulafungin] ({pTerphenylCO(4''-OnC5H11)}-[Orn(4R-OH,5R-OH)]T[Hyp][hTyr(3S-OH,4S-OH)]T[Pro(3S-OH,4S-Me)]; lactam 1-C), for which the IC50 in the data set with DENV was 3.24 µM; in the data set with ZIKV (Zika virus, Vero) it was 4.37 µM; in the data set with GTV (Guertu virus, Vero), 5.54 µM; in the data set on HRTV (Heartland virus, Vero) it was 4.99 µM; with CCHFV (setting [9]), 10.8 µM; in the data set on SARS-CoV-2 (setting [10]), 5.49 µM. Besides, the IC50 with HSV-1 (Human alphaherpesvirus 1, Vero) is 6.81 µM; with SFTSV [1] it was 3.02 µM. Besides, the “reduction of intracellular viral RNA copies relative to the control” value in the data set on SFTSV [2] is listed as “over 10 times”. Besides, the SI in the data set with ZIKV was determined as 9.54; with GTV, 7.53; with HRTV, 8.35; with CCHFV, 3.86; with SARS-CoV-2, 7.59; in the data set with HSV-1, 6.12. Besides, the SI with SFTSV [1] worked out at 13.80. Besides, the IC90 in the data set with ZIKV (Zika virus, Vero) was determined as 6.44 µM; with GTV (Guertu virus, Vero) it was 9.62 µM; in the data set on HRTV (Heartland virus, Vero) it was 9.29 µM; in the data set with CCHFV (setting [9]) it was 24.2 µM; in the data set on SARS-CoV-2 (setting [10]), 8.55 µM; with HSV-1 (Human alphaherpesvirus 1, Vero), 9.12 µM. Further, it took 12.4 µM to reach the 90% level with SFTSV [1] (IC90). Moreover, the CC50 in the data set “in vitro” is 41.7 µM. For the same compound, in the data set with SFTSV [3], the “PLT (median, IQR)” value was 1054.5 (993.25, 1094) ×10^9/L and 950 (494.5, 1062.75) ×10^9/L and 1141 (1050, 1191) ×10^9/L. Also, in the data set with SFTSV [3], the “WBC (median, IQR)” value is 4.75 (4.35, 5.465) ×10^9/L and 4.72 (4.31, 6.195) ×10^9/L and 5.76 (5.28, 6.04) ×10^9/L. Further, the body weight entry in the data set with SFTSV [3] is given as “maintained; also recorded: slight decrease”. Further, the “clinical signs of illness onset” value in the data set on SFTSV [3] is reported as “did not show typical clinical signs of illness onset”. For the same compound, the “histopathological damage in the lung, H&E” value with SFTSV [3] is listed as “significantly ameliorated”. For the same compound, the “kidney lesions (renal tubulointerstitial hemorrhaging, edemas), H&E” value in the data set with SFTSV [3] is listed as “slight”. The “liver lesion (ballooning degeneration of hepatocytes), H&E” value in the data set on SFTSV [3] is given as “significantly attenuated”. Further, the survival rate in the data set with SFTSV [3] is 66.7% and 50.0%. Moreover, the “efficacy of virus binding to cells versus vehicle” value with SFTSV [4] is on record as “did not have a significant difference”. Further, the “number of intracellular viral RNA copies (virus internalization)” value in the data set with SFTSV [5] is listed as “significantly decreased”. Moreover, the “suppression of the entry of SFTSV strain HBMC5” value in the data set on SFTSV [6] is recorded as “as efficiently as the strain WCH”. Moreover, in the data set on SFTSV [7], the “number and size of syncytia (fusion ability)” value was “decreased”.
In the data set “in vitro”, `COc1c(C)c2c(c(O)c1C/C=C(\C)CCC(=O)OCCN1CCOCC1)C(=O)OC2` [Mycophenolate mofetil] displayed a CC50 above 100 µM. Moreover, in the data set on SFTSV [1], the SI is given as above 10, the IC50 is 0.57 µM and the IC90 amounted to 1.52 µM.
The compound `O=C1C(O)=C([C@H]2CC[C@H](c3ccc(Cl)cc3)CC2)C(=O)c2ccccc21` [Atovaqone, Atovaquone] yielded a CC50 in “in vitro” above 100 µM. In the data set on SFTSV [1], the SI is listed as above 10, the IC50 was 5.06 µM and the IC90 came out at 10.1 µM.
As for `Oc1ccc2ccccc2c1SSc1c(O)ccc2ccccc12` [IPA3, p21-activated kinase inhibitor III], in the data set on SFTSV [8], the “mean inhibition rate of SFTSV infection” value was 43.22%.
The same measure, in the same setting: the same measure for `C[C@@H]1[C@H](O)[C@@H](C)/C=C/C=C/CC/C=C/C=C/C=C/C=C/C(O[C@H]2O[C@H](C)[C@@H](O)[C@H](N)[C@@H]2O)CC2O[C@](O)(CC(O)C(O)CCC(O)CC(O)CC(O)CC(=O)O[C@H]1C)CC(O)C2C(=O)O` (some centres unmarked) [nystatin]: 8.67%.
For the compound `CN(C)CCCN1c2ccccc2Sc2ccc(Cl)cc21` [CPZ, chlorpromazine], the inhibition at 35 µM with SFTSV [8] (Severe fever with thrombocytopenia syndrome virus, Vero, read-out: mean inhibition rate of SFTSV infection) is 46.1%.
`CC[C@H](C)C[C@H](C)CCCCCCCCC(=O)N[C@H]1C[C@@H](O)[C@@H](NCCN)NC(=O)[C@@H]2[C@@H](O)CCN2C(=O)[C@H]([C@H](O)CCN)NC(=O)[C@H]([C@H](O)[C@@H](O)c2ccc(O)cc2)NC(=O)[C@@H]2C[C@@H](O)CN2C(=O)[C@H]([C@@H](C)O)NC1=O` [caspofungin]: the half-maximal inhibitory concentration (IC50) in the data set with DENV is 20.8 µM. Besides, in the data set on SFTSV [6], the “inhibitory effect on SFTSV infection during the entry process” value was “limited effect”.
With `COc1c(C)c2c(c(O)c1C/C=C(\C)CCC(=O)O)C(=O)OC2` [Mycophenolic acid], in the data set “in vitro”, the CC50 was above 100 µM. In the data set with SFTSV [1], this compound registered an SI above 10, an IC50 of 0.47 µM and an IC90 of 4.75 µM.
`CCCCCOc1ccc(-c2cc(-c3ccc(C(=O)N[C@H]4C[C@@H](O)[C@@H](O)NC(=O)[C@@H]5[C@@H](O)[C@@H](C)CN5C(=O)[C@H]([C@H](O)CC(N)=O)NC(=O)[C@H]([C@H](O)[C@@H](O)c5ccc(O)c(OS(=O)(=O)O)c5)NC(=O)[C@@H]5C[C@@H](O)CN5C(=O)[C@H]([C@@H](C)O)NC4=O)cc3)no2)cc1` [Micafungin, micafungin] (X1-[Orn(4R-OH,5R-OH)]T[Hyp][hTyr(3S-OH,4S-OH,3'-OSO3H)][Gln(3R-OH)][Pro(3S-OH,4S-Me)]; lactam 1-C): the IC50 in the data set with DENV was 10.2 µM. Moreover, the “inhibitory effect on SFTSV infection during the entry process” value in the data set with SFTSV [6] is recorded as “less effective than that exerted by anidulafungin”.
